Entries after “also recorded” stand apart in the source; their conditions may differ. Like-named read-outs stand apart in the source and are kept apart here.
Experiments:
SKBr3 cells = test: MTS/PMS cell viability assay, SKBr3; format: cell-based; conditions: Homo sapiens, SK-BR-3, 72 hr, mean ± standard deviation, read-out: IC50 SKBr3
Protocol: (§1) a) MTS/PMS Cell Viability Assay (SKBr3 and MCF-7 Cells)
(§2) Cells were maintained in a 1:1 mixture of Advanced DMEM/F12 (Gibco) supplemented with non-essential amino acids, L-glutamine (2 mM), streptomycin (500 μg/mL), penicillin (100 units/mL), and 10% FBS. Cells were grown to confluence in a humidified atmosphere (37° C., 5% CO2), seeded (2000/well, 100 μL) in 96-well plates, and allowed to attach overnight. Compound at varying concentrations in DMSO (1% DMSO final concentration) was added, and cells were returned to the incubator for 72 hr. At 72 hr, the number of viable cells was determined using an MTS/PMS cell proliferation kit (Promega) per the manufacturer's instructions. Cells incubated in 1% DMSO were used at 100% proliferation, and values were adjusted accordingly. IC50 values were calculated from separate experiments performed in triplicate using GraphPad Prism.

MCF-7 cells = test: MTS/PMS cell viability assay, MCF-7; format: cell-based; conditions: Homo sapiens, MCF7
Protocol: as §1, §2

MDA-MB-468LN cell line = test: Promega CellTiter-Glo (CTG) luminescent assay, MDA-MB-468LN; format: cell-based; conditions: Homo sapiens, 72 hr, mean ± standard deviation
Protocol: (§3) b) Promega CellTiter-Glo (CTG) Luminescent Assay
(§4) Antiproliferative activities against MDA-MB-468LN, MDA1986 and JMAR cell lines were performed with 384-well white plates with the Promega CellTiter-Glo (CTG) luminescent assay with 72 hr compound treatment. Data analysis was performed using GraphPad Prism. Selected data were further checked with MTS/PMS cell viability assay with 96-well plates, which correlated well with Promega CellTiter-Glo luminescent assay.

MDA1986 cell line = test: Promega CellTiter-Glo (CTG) luminescent assay, MDA1986; format: cell-based; conditions: 72 hr, mean ± standard deviation, read-out: IC50 MDA1986
Protocol: as §3, §4

JMAR cell line = test: Promega CellTiter-Glo (CTG) luminescent assay, JMAR; format: cell-based; conditions: 72 hr, mean ± standard deviation
Protocol: as §3, §4

PC3-MM2 cells = test: Sulforhodamine B assay, PC3-MM2; format: cell-based; conditions: Homo sapiens, PC3MM2, mean ± standard deviation
Protocol: (§5) c) Sulforhodamine B Assay
(§6) The sulforhodamine B assay is used to measure drug-induced cytotoxicity and cell proliferation for large-scale drug-screening applications. Its principle is based on the ability of the protein dye sulforhodamine B to bind electrostatically on pH dependent protein basic amino acid residues of trichloroacetic acid-fixed cells. The aim is to evaluate samples showing selective growth inhibition or cell killing of particular tumor cell lines.
(§7) The SRB assay is performed by treating cells using a 10 point dose-response curve. The cells are fixed with trichloroacetic acid solution and stained with sulforhodamine B dye. The stained cells are then solubilized with 10 mM Tris buffer and read for absorbance at 565 nm.
(§8) Percentage growth is calculated at each of the drug concentration levels using the absorbance raw data.
(§9) Percentage growth inhibition is calculated as: [(Ti−Tz)/(C−Tz)]×100 for concentrations for which Ti≥Tz. [(Ti−Tz)/(Tz)]×100 for concentrations for which Ti<Tz.
(§10) Ti=Absorbance of wells at a given drug concentration level.
(§11) Tz=Absorbance time zero wells
(§12) C=Absorbance of untreated wells (media and cells only)
(§13) After growth inhibition values have been calculated, the data is plotted on Graphpad Prism software. Data is entered and plotted on a sigmoidal dose-response curve using non-linear regression.

LNCaP cells = test: Sulforhodamine B assay, LNCaP; format: cell-based; conditions: Homo sapiens, mean ± standard deviation
Protocol: as §5, §6, §7, §8, §9, §10, §11, §12, §13

[1] = tested on: Hsp90 client proteins Her2, Akt, Raf-1 and CDK6; test: Western blot analyses of Hsp90 client protein degradation in MCF-7 cell lysates; format: cell-based, human; conditions: MCF-7 lysates, 24 h; L = 1/2 and H = 5 times the antiproliferative IC50
Protocol: MCF-7 cells were cultured as described above and treated with various concentrations of drug, Geldanamycin (GDA or G) in DMSO (1% DMSO final concentration), or vehicle (DMSO) for 24 hr. Cells were harvested in cold PBS and lysed in RIPA lysis buffer containing 1 mM PMSF, 2 mM sodium orthovanadate, and protease inhibitors on ice for 1 hr. Lysates were clarified at 14000 g for 10 min at 4° C. Protein concentrations were determined using the Pierce BCA protein assay kit per the manufacturer's instructions. Equal amounts of protein (15 μg) were electrophoresed under reducing conditions, transferred to a PVDF membrane, and immunoblotted with the corresponding specific antibodies. Membranes were incubated with an appropriate horseradish peroxidase-labeled secondary antibody, developed with a chemiluminescent substrate, and visualized.

[2] = Table 1 coumarin-based triazoles, at least two experiments in triplicate
[3] = Table 1 coumarin-based triazoles, 72 hr, mean ± standard deviation, read-out: IC50 MCF-7
[4] = Table 1 coumarin-based triazoles
[5] = Table 2 biphenyl triazole analogues
[6] = Table 2 biphenyl triazole analogues, 72 hr, mean ± standard deviation, read-out: IC50 MCF-7

IC50 (SKBr3 cells; [2]) [µM]	IC50 (MCF-7 cells; [3]) [µM]	IC50 (MDA-MB-468LN cell line; [4]) [µM]	IC50 (PC3-MM2 cells; [4]) [µM]	IC50 (LNCaP cells; [4]) [µM]	IC50 (SKBr3 cells; [5]) [µM]	IC50 (MCF-7 cells; [6]) [µM]	IC50 (MDA-MB-468LN cell line; [5]) [µM]	IC50 (PC3-MM2 cells; [5]) [µM]	IC50 (LNCaP cells; [5]) [µM]	IC50 (MCF-7 cells; read-out: IC50 against MCF-7 cell line) [µM]	SMILES	IC50 (MDA1986 cell line; [4]) [µM]	IC50 (JMAR cell line; [4]) [µM]	Hsp90 client proteins Her2, Akt and Raf-1 (Western blot) [1]	IC50 (MDA1986 cell line; [5]) [µM]	IC50 (JMAR cell line; [5]) [µM]
0.71 ± 0.14	1.14 ± 0.18	4.6	3.9 ± 5.11	13.3 ± 11.9							Cc1c(OC2CCN(C)CC2)ccc2cc(NC(=O)c3cn(-c4cccc(Cl)c4)nn3)c(=O)oc12 [4f, 1-(3-Chlorophenyl)-N-(8-methyl-7-((1-methylpiperidin-4-yl)oxy)-2-oxo-2H-chromen-3-yl)-1H-1,2,3-triazole-4-carboxamide]	6.4	6.4	degraded		
1.15 ± 0.19	1.61 ± 0.06	2.69 ± 1.33	7.2 ± 0.15	3.49 ± 0.3							COc1cccc(Cn2cc(C(=O)Nc3cc4ccc(OC5CCN(C)CC5)c(C)c4oc3=O)nn2)c1 [4o, 1-(3-Methoxybenzyl)-N-(8-methyl-7-((1-methylpiperidin-4-yl)oxy)-2-oxo-2H-chromen-3-yl)-1H-1,2,3-triazole-4-carboxamide]	1.34 ± 0.31	1.49 ± 0.31	degraded		
0.61	1.29 ± 0.16	0.99 ± 0.24	3.13 ± 0.14	1.2 ± 0.06							Cc1c(OC2CCN(C)CC2)ccc2cc(NC(=O)c3cn(CC4CCCCC4)nn3)c(=O)oc12 [4q, 1-(Cyclohexylmethyl)-N-(8-methyl-7-((1-methylpiperidin-4-yl)oxy)-2-oxo-2H-chromen-3-yl)-1H-1,2,3-triazole-4-carboxamide]	0.24 ± 0.32	0.3 ± 0.26	degraded		
					0.32 ± 0.1	0.44 ± 0.04	0.74 ± 0.19	0.66 ± 0.21	1.59 ± 0.78		CN1CCC(Oc2ccc(-c3ccc(NC(=O)c4cn(Cc5ccc(Cl)cc5)nn4)cc3)cc2)CC1 [5d, 1-(4-Chlorobenzyl)-N-(4′-((1-methylpiperidin-4-yl)oxy)-[1, 1′-biphenyl]-4-yl)-1H-1,2,3-triazole-4-carboxamide]				1.3 ± 0.37	2.3 ± 0.82
					0.49 ± 0.03	0.56 ± 0.04	2.8 ± 0.61	19.9 ± 27.9	0.54 ± 0.12		CN1CCC(Oc2ccc(-c3ccc(NC(=O)c4cn(Cc5ccc(Br)cc5)nn4)cc3)cc2)CC1 [5e, 1-(4-Bromobenzyl)-N-(4′-((1-methylpiperidin-4-yl)oxy)-[1,1′-biphenyl]-4-yl)-1H-1,2,3-triazole-4-carboxamide]				3.1 ± 0.87	7.8
					0.16 ± 0.02	0.27 ± 0.06	0.17	0.44 ± 0.19	0.24 ± 0.07	0.27	COc1ccc(Cn2cc(C(=O)Nc3ccc(-c4ccc(OC5CCN(C)CC5)cc4)cc3)nn2)cc1 [5g, 1-(4-Methoxybenzyl)-N-(4′-((1-methylpiperidin-4-yl)oxy)-[1,1′-biphenyl]-4-yl)-1H-1,2,3-triazole-4-carboxamide]			decreased; also recorded: Clear degradation	0.48 ± 0.09	0.61 ± 0.09
					3.72 ± 0.68	10.5 ± 0.4	2.61 ± 0.76	> 100	1.01 ± 1.39		CN1CCC(Oc2ccc(-c3ccc(NC(=O)c4cn(Cc5ccc(C(C)(C)C)cc5)nn4)cc3)cc2)CC1 [5h, 1-(4-tert-Butylbenzyl)-N-(4′-((1-methylpiperidin-4-yl)oxy)-[1,1′-biphenyl]-4-yl)-1H-1,2,3-triazole-4-carboxamide]				2.34 ± 1.81	3.49 ± 2.05
					0.45 ± 0.04	0.55 ± 0.01	0.56 ± 0.25	1.03 ± 0.16	0.6 ± 0.34		CN1CCC(Oc2ccc(-c3ccc(NC(=O)c4cn(Cc5ccc([N+](=O)[O-])cc5)nn4)cc3)cc2)CC1 [5i, 1-(4-Nitrobenzyl)-N-(4′-((1-methylpiperidin-4-yl)oxy)-[1,1′-biphenyl]-4-yl)-1H-1,2,3-triazole-4-carboxamide]				0.19 ± 0.17	0.21 ± 0.35
					0.72 ± 0.18	1.04 ± 0.08	1.09 ± 0.23	2.81 ± 1.82	1.64 ± 0.97		CN1CCC(Oc2ccc(-c3ccc(NC(=O)c4cn(Cc5ccc(F)cc5)nn4)cc3)cc2)CC1 [5j, 1-(4-Fluorobenzyl)-N-(4′-((1-methylpiperidin-4-yl)oxy)-[1,1′-biphenyl]-4-yl)-1H-1,2,3-triazole-4-carboxamide]				0.93 ± 0.34	1.39 ± 0.52
					0.39 ± 0.01	0.34 ± 0.02	0.17 ± 0.02	0.35 ± 0.14	0.12 ± 0.1		CN1CCC(Oc2ccc(-c3ccc(NC(=O)c4cn(Cc5cccc(Cl)c5)nn4)cc3)cc2)CC1 [5k, 1-(3-Chlorobenzyl)-N-(4′-((1-methylpiperidin-4-yl)oxy)-[1,1′-biphenyl]-4-yl)-1H-1,2,3-triazole-4-carboxamide]				0.17 ± 0.12	0.27 ± 0.04
					0.32 ± 0.02	0.16 ± 0.02	0.19 ± 0.05	0.55 ± 0.37	0.16		COc1cccc(Cn2cc(C(=O)Nc3ccc(-c4ccc(OC5CCN(C)CC5)cc4)cc3)nn2)c1 [5l, 1-(3-Methoxybenzyl)-N-(4′-((1-methylpiperidin-4-yl)oxy)-[1,1′-biphenyl]-4-yl)-1H-1,2,3-triazole-4-carboxamide]				0.28 ± 0.09	0.21 ± 0.12
					0.34 ± 0.04	0.38 ± 0.03	0.22 ± 0.03	1.04 ± 0.51	0.61 ± 0.34		CN1CCC(Oc2ccc(-c3ccc(NC(=O)c4cn(Cc5ccccc5Cl)nn4)cc3)cc2)CC1 [5m, 1-(2-Chlorobenzyl)-N-(4′-((1-methylpiperidin-4-yl)oxy)-[1,1′-biphenyl]-4-yl)-1H-1,2,3-triazole-4-carboxamide]				0.81 ± 0.05	0.65
					0.16 ± 0.01	0.2 ± 0.05	0.15 ± 0.02	0.35 ± 0.12	0.05 ± 0.04		Cc1ccc(Cn2cc(C(=O)Nc3ccc(-c4ccc(OC5CCN(C)CC5)cc4)cc3)nn2)c(Cl)c1 [5n, 1-(2-Chloro-4-methylbenzyl)-N-(4′-((1-methylpiperidin-4-yl)oxy)-[1,1′-biphenyl]-4-yl)-1H-1,2,3-triazole-4-carboxamide]				0.15 ± 0.06	0.43 ± 0.25
					0.2 ± 0.02	0.31 ± 0.04	0.24 ± 0.06	5.12 ± 6.54	0.48 ± 0.68		CN1CCC(Oc2ccc(-c3ccc(NC(=O)c4cn(CC5CCCCC5)nn4)cc3)cc2)CC1 [5o, 1-(Cyclohexylmethyl)-N-(4′-((1-methylpiperidin-4-yl)oxy)-[1,1′-biphenyl]-4-yl)-1H-1,2,3-triazole-4-carboxamide]				0.38 ± 0.14	0.26 ± 0.45
